In ChEMBL document CHEMBL5465560, “Selectivity Literature for EUbOPEN Chemogenomic Library” (2024) one finds % of control, % of activity and % of inhibition data, which are given here for eight compounds.

Assay [1] deals with T1, Serine/threonine-protein kinase NLK (Homo sapiens) (UniProt Q9UBE8).
T1 sequence (whole entry): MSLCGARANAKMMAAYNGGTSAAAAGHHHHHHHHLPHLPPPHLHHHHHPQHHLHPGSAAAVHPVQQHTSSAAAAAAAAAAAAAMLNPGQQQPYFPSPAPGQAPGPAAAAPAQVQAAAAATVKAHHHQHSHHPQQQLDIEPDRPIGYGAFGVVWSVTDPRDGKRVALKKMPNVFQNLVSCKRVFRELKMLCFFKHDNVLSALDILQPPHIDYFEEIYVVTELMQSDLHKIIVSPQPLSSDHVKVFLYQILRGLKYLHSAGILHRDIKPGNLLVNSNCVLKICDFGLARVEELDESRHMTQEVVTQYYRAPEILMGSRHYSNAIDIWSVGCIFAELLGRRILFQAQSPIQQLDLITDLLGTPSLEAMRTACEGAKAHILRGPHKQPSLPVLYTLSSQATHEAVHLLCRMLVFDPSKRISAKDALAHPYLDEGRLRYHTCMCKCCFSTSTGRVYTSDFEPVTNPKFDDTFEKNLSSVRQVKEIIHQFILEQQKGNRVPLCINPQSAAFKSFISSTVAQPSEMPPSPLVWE
The conditions noted are these: at 10 µM.

Assay [2] addresses Mitogen-activated protein kinase 10 (Homo sapiens, UniProt P53779). Nature of the assay: Selectivity interaction (KinomeScan (DiscoverX)) EUB0001079a MAPK10. As to conditions: at 1 µM.
In assay [3] the target is T2, Serine/threonine-protein kinase Sgk2 (Homo sapiens) (UniProt Q9HBY8).
T2 sequence (whole entry): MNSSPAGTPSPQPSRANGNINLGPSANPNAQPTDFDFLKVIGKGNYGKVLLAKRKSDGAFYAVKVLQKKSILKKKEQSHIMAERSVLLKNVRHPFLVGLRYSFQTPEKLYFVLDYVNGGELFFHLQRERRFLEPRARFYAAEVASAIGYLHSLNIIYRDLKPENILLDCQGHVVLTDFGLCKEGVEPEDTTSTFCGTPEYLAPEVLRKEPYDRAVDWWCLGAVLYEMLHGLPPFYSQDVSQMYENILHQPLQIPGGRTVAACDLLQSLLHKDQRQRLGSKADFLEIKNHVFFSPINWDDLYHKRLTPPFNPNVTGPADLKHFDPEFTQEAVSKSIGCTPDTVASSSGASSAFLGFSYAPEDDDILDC
Nature of the assay: Selectivity interaction (KinomeScan (DiscoverX)) EUB0001079a SGK2. As to conditions: at 1 µM.

The target of assay [4] is T3, Serine/threonine-protein kinase TNNI3K (Homo sapiens) (UniProt Q59H18).
T3 sequence (whole entry): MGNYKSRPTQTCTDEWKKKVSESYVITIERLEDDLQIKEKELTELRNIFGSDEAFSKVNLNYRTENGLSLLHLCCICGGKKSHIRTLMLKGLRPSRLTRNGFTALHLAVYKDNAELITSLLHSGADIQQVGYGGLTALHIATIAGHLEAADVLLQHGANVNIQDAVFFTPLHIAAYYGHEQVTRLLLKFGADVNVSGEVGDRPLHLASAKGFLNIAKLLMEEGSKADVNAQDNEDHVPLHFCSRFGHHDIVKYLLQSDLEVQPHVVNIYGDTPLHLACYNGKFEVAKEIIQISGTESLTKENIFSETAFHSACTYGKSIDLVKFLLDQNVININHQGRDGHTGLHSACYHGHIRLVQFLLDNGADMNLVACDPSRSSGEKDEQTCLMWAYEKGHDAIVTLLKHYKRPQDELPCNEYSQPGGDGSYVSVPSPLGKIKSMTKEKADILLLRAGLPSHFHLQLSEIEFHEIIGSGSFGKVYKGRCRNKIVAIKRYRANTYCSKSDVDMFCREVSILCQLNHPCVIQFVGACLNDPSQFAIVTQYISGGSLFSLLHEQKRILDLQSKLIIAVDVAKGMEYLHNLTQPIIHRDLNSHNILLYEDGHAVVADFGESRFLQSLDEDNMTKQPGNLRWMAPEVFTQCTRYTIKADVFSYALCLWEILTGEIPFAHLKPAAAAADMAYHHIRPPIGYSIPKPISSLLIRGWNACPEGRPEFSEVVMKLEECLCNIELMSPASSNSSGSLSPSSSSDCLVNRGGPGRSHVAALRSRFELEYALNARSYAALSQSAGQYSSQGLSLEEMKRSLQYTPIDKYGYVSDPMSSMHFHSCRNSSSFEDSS
As to the kind of experiment: Selectivity interaction (KinomeScan (DiscoverX)) EUB0001049a TNNI3K. As to conditions: at 1 µM.

In assay [5] the test system is Epidermal growth factor receptor (Homo sapiens), P00533 [G719C]. Nature of the assay: (§1) Selectivity interaction (KinomeScan (DiscoverX)) EUB0000655a EGFR. The conditions noted are these: at 10 µM.
The subject of assay [6] is Epidermal growth factor receptor (Homo sapiens), P00533 [G719S]. The assay is described as §1. The conditions noted are these: at 10 µM.
Assay [7] concerns Epidermal growth factor receptor (Homo sapiens), P00533 [L858R,T790M]. The assay is described as §1. The conditions noted are these: at 10 µM.
In assay [8] the test system is Epidermal growth factor receptor (Homo sapiens), P00533 [L858R]. The assay is described as §1. As to conditions: at 10 µM.
Chain of Epidermal growth factor receptor (Homo sapiens), P00533 [L858R] (P00533 whole entry L858R): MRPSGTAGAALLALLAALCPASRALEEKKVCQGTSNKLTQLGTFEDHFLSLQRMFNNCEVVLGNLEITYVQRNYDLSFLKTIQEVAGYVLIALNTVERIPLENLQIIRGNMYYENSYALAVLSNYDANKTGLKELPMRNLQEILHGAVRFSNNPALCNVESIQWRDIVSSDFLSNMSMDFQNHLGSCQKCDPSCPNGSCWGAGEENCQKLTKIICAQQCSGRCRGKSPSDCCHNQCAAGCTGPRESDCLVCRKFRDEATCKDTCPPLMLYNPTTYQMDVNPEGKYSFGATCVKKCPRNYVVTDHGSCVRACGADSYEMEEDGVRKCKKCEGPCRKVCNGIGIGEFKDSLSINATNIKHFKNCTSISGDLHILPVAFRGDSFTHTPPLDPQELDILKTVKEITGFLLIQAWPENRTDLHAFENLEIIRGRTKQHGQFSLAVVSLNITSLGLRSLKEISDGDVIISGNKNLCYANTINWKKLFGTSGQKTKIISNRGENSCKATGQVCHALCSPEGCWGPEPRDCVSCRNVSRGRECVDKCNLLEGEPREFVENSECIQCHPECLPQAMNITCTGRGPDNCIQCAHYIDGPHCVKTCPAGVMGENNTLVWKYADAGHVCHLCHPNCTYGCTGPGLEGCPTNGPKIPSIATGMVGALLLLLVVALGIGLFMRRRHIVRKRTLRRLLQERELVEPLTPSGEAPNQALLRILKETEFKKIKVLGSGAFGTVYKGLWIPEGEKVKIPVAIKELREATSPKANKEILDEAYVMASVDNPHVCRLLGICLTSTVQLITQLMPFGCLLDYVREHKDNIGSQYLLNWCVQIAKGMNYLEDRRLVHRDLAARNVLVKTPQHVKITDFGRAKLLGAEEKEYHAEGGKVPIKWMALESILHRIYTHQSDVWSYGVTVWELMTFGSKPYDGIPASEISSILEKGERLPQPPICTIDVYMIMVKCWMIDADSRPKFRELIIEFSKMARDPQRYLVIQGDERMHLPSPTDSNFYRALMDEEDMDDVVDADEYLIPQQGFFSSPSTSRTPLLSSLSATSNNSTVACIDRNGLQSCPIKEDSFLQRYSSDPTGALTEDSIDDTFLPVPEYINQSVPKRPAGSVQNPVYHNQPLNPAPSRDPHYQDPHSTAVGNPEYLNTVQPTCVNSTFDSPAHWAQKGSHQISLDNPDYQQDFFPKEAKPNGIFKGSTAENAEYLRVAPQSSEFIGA
The subject of assay [9] is Epidermal growth factor receptor (Homo sapiens), P00533 [L861Q]. The description is as §1. The conditions noted are these: at 10 µM.
Assay [10] concerns Epidermal growth factor receptor (Homo sapiens), P00533 [T790M]. Described as §1. As to conditions: at 10 µM.
Chain of Epidermal growth factor receptor (Homo sapiens), P00533 [T790M] (P00533 whole entry T790M): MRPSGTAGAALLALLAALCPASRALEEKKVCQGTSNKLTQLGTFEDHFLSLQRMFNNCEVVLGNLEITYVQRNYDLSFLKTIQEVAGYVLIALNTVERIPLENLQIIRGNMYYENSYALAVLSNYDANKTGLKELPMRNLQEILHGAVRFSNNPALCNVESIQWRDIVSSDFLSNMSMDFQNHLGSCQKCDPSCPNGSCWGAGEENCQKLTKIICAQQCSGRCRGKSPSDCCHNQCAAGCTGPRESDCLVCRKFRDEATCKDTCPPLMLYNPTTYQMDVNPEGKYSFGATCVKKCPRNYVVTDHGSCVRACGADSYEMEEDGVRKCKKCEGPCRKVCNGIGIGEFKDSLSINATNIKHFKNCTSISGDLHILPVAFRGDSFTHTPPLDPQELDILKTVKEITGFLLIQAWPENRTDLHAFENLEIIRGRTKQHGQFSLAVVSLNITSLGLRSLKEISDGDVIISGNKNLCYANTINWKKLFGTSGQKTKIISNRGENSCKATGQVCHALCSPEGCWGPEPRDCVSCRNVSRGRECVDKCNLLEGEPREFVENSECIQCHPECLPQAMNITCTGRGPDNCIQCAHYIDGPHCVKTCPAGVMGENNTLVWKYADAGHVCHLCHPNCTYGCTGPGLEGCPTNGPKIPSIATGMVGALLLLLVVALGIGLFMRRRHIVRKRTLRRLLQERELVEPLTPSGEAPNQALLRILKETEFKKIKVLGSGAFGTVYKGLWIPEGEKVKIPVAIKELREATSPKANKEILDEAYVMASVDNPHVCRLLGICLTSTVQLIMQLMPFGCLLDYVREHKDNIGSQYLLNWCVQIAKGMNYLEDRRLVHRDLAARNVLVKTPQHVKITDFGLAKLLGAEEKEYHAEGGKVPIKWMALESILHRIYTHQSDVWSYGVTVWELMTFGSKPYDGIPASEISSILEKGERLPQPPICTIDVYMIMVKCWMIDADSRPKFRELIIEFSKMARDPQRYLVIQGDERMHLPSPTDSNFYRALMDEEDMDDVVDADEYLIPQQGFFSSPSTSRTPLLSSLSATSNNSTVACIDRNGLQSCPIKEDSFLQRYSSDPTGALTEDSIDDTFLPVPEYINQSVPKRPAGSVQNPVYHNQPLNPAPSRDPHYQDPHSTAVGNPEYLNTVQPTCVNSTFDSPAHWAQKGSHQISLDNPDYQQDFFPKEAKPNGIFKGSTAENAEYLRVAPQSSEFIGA
Assay [11] deals with Epidermal growth factor receptor (Homo sapiens), P00533 [UNDEFINED MUTATION]. The description is as §1. The conditions noted are these: at 10 µM.
Assay [12] has as its target Epidermal growth factor receptor (Homo sapiens, UniProt P00533). Described as §1. As to conditions: at 10 µM.
The target in assay [13] is Phosphatidylinositol 4-phosphate 3-kinase C2 domain-containing subunit beta (Homo sapiens) (UniProt O00750). Nature of the assay: Selectivity interaction (KinomeScan (DiscoverX)) EUB0000695a PIK3C2B. The conditions noted are these: at 100 nM.
The target of assay [14] is Histone-lysine N-methyltransferase, H3 lysine-36 specific (Homo sapiens) (UniProt Q96L73). As to the kind of experiment: Selectivity interaction (Methyltransferase screen (radiometric assays, panel of 8 PRMTs, 21 protein lysine methyltransferases, 3 DNA methyltransferases, and one RNA methyltransferase)) EUB0000271b NSD1. The conditions noted are these: at 10 µM.
In assay [15] the target is Insulin receptor (Homo sapiens, UniProt P06213). Nature of the assay: Selectivity interaction (ActivX KiNativ screen (kinase selectivity in THP-1 cell lysates)) EUB0000639a INSR. It is filed as subcellular. As to conditions: lysate.
Chain of Insulin receptor (P06213 28-758 limits assumed): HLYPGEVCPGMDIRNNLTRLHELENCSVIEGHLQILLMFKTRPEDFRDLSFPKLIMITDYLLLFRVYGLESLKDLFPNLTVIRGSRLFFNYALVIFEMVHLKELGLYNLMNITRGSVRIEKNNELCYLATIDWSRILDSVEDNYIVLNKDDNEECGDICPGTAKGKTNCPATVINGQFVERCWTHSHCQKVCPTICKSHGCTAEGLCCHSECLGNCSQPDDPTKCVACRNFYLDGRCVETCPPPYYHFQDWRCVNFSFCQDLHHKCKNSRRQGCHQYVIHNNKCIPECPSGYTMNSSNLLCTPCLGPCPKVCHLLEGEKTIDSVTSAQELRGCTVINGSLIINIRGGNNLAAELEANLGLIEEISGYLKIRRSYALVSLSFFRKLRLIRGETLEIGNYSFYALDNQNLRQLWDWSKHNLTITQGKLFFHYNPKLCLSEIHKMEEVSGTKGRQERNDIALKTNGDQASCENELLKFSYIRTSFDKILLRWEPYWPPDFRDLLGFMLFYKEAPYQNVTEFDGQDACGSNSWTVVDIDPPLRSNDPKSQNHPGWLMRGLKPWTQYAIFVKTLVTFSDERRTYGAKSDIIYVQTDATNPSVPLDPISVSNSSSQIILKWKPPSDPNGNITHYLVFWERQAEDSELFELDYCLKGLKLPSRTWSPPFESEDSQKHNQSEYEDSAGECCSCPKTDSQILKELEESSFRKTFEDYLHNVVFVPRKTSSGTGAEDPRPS
Chain of Insulin receptor (P06213 763-1382 limits assumed): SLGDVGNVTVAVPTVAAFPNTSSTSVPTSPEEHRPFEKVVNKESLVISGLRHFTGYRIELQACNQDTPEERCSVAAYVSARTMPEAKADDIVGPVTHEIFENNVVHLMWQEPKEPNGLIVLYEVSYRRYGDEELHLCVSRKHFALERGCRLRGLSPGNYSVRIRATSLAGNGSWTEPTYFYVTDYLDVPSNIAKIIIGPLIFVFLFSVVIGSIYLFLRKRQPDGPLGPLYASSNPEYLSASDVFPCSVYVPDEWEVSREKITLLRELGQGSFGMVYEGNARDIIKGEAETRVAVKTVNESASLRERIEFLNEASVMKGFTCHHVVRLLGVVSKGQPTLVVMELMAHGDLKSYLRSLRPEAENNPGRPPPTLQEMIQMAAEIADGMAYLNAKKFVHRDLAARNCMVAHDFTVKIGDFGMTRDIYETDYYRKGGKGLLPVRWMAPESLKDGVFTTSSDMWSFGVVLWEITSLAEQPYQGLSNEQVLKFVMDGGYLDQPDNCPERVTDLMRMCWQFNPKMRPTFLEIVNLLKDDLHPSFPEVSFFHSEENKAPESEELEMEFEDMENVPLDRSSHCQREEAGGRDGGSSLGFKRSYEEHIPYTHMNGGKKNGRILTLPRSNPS
Assay [16] addresses T4, Dual specificity mitogen-activated protein kinase kinase 6 (Homo sapiens) (UniProt P52564).
T4 sequence (whole entry): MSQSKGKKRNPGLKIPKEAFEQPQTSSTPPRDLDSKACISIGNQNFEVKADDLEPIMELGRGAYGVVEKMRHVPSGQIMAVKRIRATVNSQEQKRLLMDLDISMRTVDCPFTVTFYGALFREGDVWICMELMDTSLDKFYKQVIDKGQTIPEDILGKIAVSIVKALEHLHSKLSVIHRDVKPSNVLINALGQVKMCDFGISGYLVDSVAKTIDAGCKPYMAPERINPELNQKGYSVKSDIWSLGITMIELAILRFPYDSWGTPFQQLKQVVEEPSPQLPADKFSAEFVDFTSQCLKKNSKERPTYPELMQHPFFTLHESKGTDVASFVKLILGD
Nature of the assay: Selectivity interaction (KinomeScan (DiscoverX)) EUB0000618a MAP2K6. The conditions noted are these: at 10 µM.

Chain of Epidermal growth factor receptor (Homo sapiens), P00533 [G719S] (P00533 whole entry G719S): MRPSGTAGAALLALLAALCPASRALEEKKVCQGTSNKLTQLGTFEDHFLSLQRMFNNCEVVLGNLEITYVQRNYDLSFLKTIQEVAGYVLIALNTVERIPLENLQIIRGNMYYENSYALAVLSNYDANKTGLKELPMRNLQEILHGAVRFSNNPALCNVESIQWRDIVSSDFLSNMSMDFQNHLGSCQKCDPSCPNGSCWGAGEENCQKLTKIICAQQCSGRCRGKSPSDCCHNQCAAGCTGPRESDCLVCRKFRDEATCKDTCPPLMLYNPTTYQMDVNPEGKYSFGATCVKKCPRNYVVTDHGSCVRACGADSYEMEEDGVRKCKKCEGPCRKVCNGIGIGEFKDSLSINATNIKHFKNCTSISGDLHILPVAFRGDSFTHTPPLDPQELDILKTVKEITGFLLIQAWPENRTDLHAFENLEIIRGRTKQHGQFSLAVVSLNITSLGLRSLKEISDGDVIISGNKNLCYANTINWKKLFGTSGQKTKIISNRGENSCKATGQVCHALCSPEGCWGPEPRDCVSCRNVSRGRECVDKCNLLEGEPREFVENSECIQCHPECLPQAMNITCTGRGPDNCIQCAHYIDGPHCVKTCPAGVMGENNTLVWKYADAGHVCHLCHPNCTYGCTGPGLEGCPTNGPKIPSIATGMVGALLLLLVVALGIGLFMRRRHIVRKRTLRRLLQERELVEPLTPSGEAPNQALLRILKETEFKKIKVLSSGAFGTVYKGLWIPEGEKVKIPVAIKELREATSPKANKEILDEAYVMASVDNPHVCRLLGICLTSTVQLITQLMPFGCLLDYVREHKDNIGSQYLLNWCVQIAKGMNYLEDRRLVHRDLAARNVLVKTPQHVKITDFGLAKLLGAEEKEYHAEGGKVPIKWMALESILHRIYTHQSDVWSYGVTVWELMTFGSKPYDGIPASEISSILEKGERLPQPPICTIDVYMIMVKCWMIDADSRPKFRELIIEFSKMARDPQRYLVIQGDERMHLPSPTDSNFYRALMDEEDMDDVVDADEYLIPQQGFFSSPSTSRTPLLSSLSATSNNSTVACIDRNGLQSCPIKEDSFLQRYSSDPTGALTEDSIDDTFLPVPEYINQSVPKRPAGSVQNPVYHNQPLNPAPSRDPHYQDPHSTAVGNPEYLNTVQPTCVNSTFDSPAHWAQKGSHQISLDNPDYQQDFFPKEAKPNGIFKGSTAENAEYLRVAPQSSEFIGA

In assay [1], `Cc1cc([C@@H](C)Nc2ccccc2C(=O)O)c2nc(N3CCOCC3)cc(=O)n2c1` [AZD-6482] returned a % of control of 94%.
For `Nc1cnc(N2CCc3cc(S(=O)(=O)Nc4c(F)cc(Cl)cc4F)cc(N4CCCC4=O)c32)nc1` [TP-020n], the % of control in assay [2] was determined as 94%; in [3], 76%.
Compound `COc1cc(Nc2nc(C)cc(-c3cnn4nc(OC)ccc34)n2)cc(C(F)(F)F)c1` had a % of control in assay [4] of 100%.
Consider `CN(C)CCOc1ccc(-c2nc(-c3ccncc3)c(-c3ccc4c(c3)CC/C4=N\O)[nH]2)cc1`, for which the % of control was 59% in assay [5]; 70% in assay [6]; 93% in [7]; 54% in assay [8]; 34% in assay [9]; 34% in [10]. Further, the % of control in [11] was 100%; in assay [12], 95%.
The compound `Cc1cc(F)c(C(=O)Nc2cccc(-c3nncn3C(C)C)n2)cc1-n1cnc(C2CC2)c1` gave a % of control in assay [13] of 100%.
Consider `Cc1cc(C)cc([C@@H]2c3cc(C)ccc3NC(=O)CN2C(=O)c2ccc(Br)s2)c1`, for which, in assay [14], the % of activity amounted to 105%.
As to `CC[C@@H]1[C@H](F)C(=O)N[C@@H]1COc1nccc2cc(C(N)=O)c(OC)cc12` [ZIMLOVISERTIB], the % of inhibition was -44.7% in assay [15] (at 0.01 µM); 10.7% in assay [15] (at 0.04 µM); -15.5% in assay [15] (at 0.2 µM); -21.5% in [15] (at 1 µM); -37.4% in [15] (at 5 µM).
As to `O[C@H]1CC[C@H](Nc2ncc3nc(Nc4c(F)cc(F)cc4F)n([C@H]4CCOC4)c3n2)CC1`, the % of control in assay [16] turned out to be 88%.
